Data from patent US11078499B2, “Host cells and methods for producing toluene biochemically” (The Regents of the University of California, priority 2018, dated 2021).

System: PhdB
Assay: Assays testing whether PhdB could decarboxylate o-, m-, or p-hydroxyphenylacetate, equimolar with phenylacetic acid-2-13C
Type: biochemical, Acidobacteria strain Tolsyn
Conditions: for PhdB activity on substrate: relative to phenylacetate, equimolar 2.5 mM
Description: Analogous assays with o- and m-hydroxyphenylacetate similarly indicated very low (in this case, undetectable) PhdB activity for these hydroxyphenylacetate isomers, whereas labeled toluene is easily detected.
Assays for phenylacetate decarboxylase activity were performed under strictly anaerobic conditions within a glove box. Assays, which were performed in 4-mL glass vials sealed with 13-mm diameter PTFE Mininert screw-cap valves (Sigma-Aldrich), contained […] PhdA in assay buffer [50 mM TRIS (pH 7.5), 150 mM NaCl, 1 mM MgCl2, 5 mM (NH4)2SO4, 5 mM DTT)], to which 2 mM dithionite was added and incubated for ˜1 hour, followed by the addition of 2 mM SAM, 2.5 μM PhdB in assay buffer, and 2.5 mM phenylacetic acid-2-^13C in a final volume of 1 or 1.5 mL (depending on the specific experiment). Quantitative standards contained the same headspace/liquid ratios as assays and a dimensionless Henry's constant of 0.27^43 was used to calculate aqueous concentration. Negative controls were run concurrently and were identical except for the absence of SAM (FIG. 6). The vials were shaken on a tabletop orbital shaker at low speed. Gaseous headspace samples (100 μL) were taken within the glove box using a 500-μL gastight syringe (Sample-Lok series A-2; Sigma-Aldrich) and analyzed immediately by GC/MS, as described previously^8. Briefly, toluene was analyzed by static headspace, electron ionization (EI) GC/MS using a model 7890A GC (Agilent, Santa Clara, Calif.) with a DB-5 fused silica capillary column (30-m length, 0.25-mm inner diameter, 0.25-μm film thickness; Agilent) coupled to an HP 5975C series quadrupole mass spectrometer. As described elsewhere^8, the identity of [methyl-^13C]toluene was confirmed with the expected m/z 93/92 ratio of 0.6. Replicates involved separate assays rather than multiple analyses of a given assay sample. In assays testing whether PhdB could decarboxylate o-, m-, or p-hydroxyphenylacetate to o-, m-, or p-cresol, conditions were as described above except that equimolar amounts (2.5 mM) of o-, m-, or p-hydroxyphenylacetic acid (Sigma) and phenylacetic acid-2-^13C were added, and GC/MS analysis of o-, m-, or p-cresol in 1-μL liquid injections of concentrated hexane extracts were conducted as described previously^8. The identity of o-, m-, or p-cresol was assessed using retention time and the expected m/z 108/107 ratio of 1.16, 1.05, or 0.83, respectively, based on authentic standards.

## O=C(O)Cc1cccc(O)c1 [m-hydroxyphenylacetate, m-hydroxyphenylacetic acid]
  PhdB activity on substrate: undetectable

## O=C(O)Cc1ccccc1O [o-hydroxyphenylacetate, o-hydroxyphenylacetic acid]
  PhdB activity on substrate: undetectable

## O=C(O)Cc1ccc(O)cc1 [p-hydroxyphenylacetate]
Equimolar phenylacetate and p-hydroxyphenylacetate (2.5 mM) with PhdA, PhdB and SAM
  p-cresol level relative to that expected if PhdB activity were comparable to phenylacetate: approximately 100 fold lower
  PhdB activity on substrate: far lower activity
